Results on 26 sequences are retold here after publication PMC7579403, “POTN: A Human Leukocyte Antigen-A2 Immunogenic Peptides Screening Model and Its Applications in Tumor Antigens Prediction” (Frontiers in Immunology, 2020).

One experiment deals with T1, HLA-A2 molecule (Homo sapiens, UniProt P04439, D140Y/D185E/D98H/E176V/E277Q/G131W/G231S/I119V/I121R/I166T/I218V/L300P/L318F/N151K/N90K/P208A/P217A/Q86G/Q94H/R138H/R169H/T345S).
T1 construct: The T2 cell line (HLA-A2) was supplied by Professor Yuzhang Wu; endogenous in cells; host or cells: T2 cell line (HLA-A2); exogenous human β2-microglobulin from Merck
Description: T2 binding assay (fluorescence index, FI). Particulars: T2 cells, peptide 50 μg/mL, human β2-microglobulin 3 µg/mL, 37°C 18 h, anti-HLA-A2 BB7.2 PE-cy7, flow cytometry; class by FI. As for the experimental part: The T2 binding assay was used to determine the binding affinity of the candidate peptides and HLA-A2 molecule by using a previously described protocol ([27]). The T2 cell line (HLA-A2) was supplied by Professor Yuzhang Wu (Third Military Medical University, Chongqing, China). […] The T2 cells were washed twice and incubated with the anti-human HLA-A2-PE-cy7 antibody (BB7.2, eBioscience, USA) at 4°C for 30 min. The mean fluorescence intensity (FI) of each group was analyzed by flow cytometry (FACSCalibur, Becton-Dickinson, USA). Based on the FI, the binding affinity of the candidate peptides toward HLA-A2 molecule was calculated by FI =a−b/b where a is the mean PE-cy7 FI with the peptide and b is the mean PE-cy7 FI without the peptide.
For orientation: Flow cytometry measures light scatter and fluorescence of single cells or particles in a stream.
In the case of “ALDEKVAEL [CT-X candidate nonamer predicted by POTN, synthesized]”, the Binding entry is on record as “++ (FI ≥ 1.5)”.
Same read-out and setting: next, “ALSTVLPGL [CT-X candidate nonamer predicted by POTN, synthesized]”: “++ (FI ≥ 1.5)”; “ALSVMGVYV [CT-X candidate nonamer predicted by POTN, synthesized]”: “+ (FI ≥ 0.5 to < 1.5)”; “AMASASPSV [CT-X candidate nonamer predicted by POTN, synthesized]”: “++ (FI ≥ 1.5)”.
Still for that read-out and setting: next, “FIDKLVESV [CT-X candidate nonamer predicted by POTN, synthesized]”: “++ (FI ≥ 1.5)”.
In the case of “FLAKLNNTV [CT-X candidate nonamer predicted by POTN, synthesized; also in training set]”, the Binding entry is recorded as “+ (FI ≥ 0.5 to < 1.5)”.
Same read-out and setting: next, “FLAMLKNTV [CT-X candidate nonamer predicted by POTN, synthesized]”: “+ (FI ≥ 0.5 to < 1.5)”.
“FLSKLSSII [CT-X candidate nonamer predicted by POTN, synthesized]”: the Binding entry was “- (FI < 0.5)”.
The same measure, in the same setting: the value for “ILDRANQSV [CT-X candidate nonamer predicted by POTN, synthesized]” was “++ (FI ≥ 1.5)”.
The same measure, in the same setting: next, “KLSSIIPSA [CT-X candidate nonamer predicted by POTN, synthesized]”: “++ (FI ≥ 1.5)”; “KMAGELIKI [CT-X candidate nonamer predicted by POTN, synthesized]”: “++ (FI ≥ 1.5)”; “KVADLIHFL [CT-X candidate nonamer predicted by POTN, synthesized]”: “+ (FI ≥ 0.5 to < 1.5)”.
On to “KVAELVHFL [CT-X candidate nonamer predicted by POTN, synthesized]”, for which the Binding entry is “+ (FI ≥ 0.5 to < 1.5)”.
Same read-out and setting: the value for “KVAKLVHFL [CT-X candidate nonamer predicted by POTN, synthesized]” was “+ (FI ≥ 0.5 to < 1.5)”; that for “LMDVQIPTA [CT-X candidate nonamer predicted by POTN, synthesized]” was “++ (FI ≥ 1.5)”; that for “SIDDLSFYV [CT-X candidate nonamer predicted by POTN, synthesized]” was “++ (FI ≥ 1.5)”.
For the sequence “TLDEKVAEL [CT-X candidate nonamer predicted by POTN, synthesized]”, the Binding entry is “++ (FI ≥ 1.5)”.
On the same count and under the same terms, next, “TLDQVLDEV [CT-X candidate nonamer predicted by POTN, synthesized]”: “++ (FI ≥ 1.5)”.
The same measure, in the same setting: next, “VLSAVTPEL [CT-X candidate nonamer predicted by POTN, synthesized]”: “+ (FI ≥ 0.5 to < 1.5)”.
As for “VLSNVLSGL [CT-X candidate nonamer predicted by POTN, synthesized]”, the Binding result is recorded as “+ (FI ≥ 0.5 to < 1.5)”.
For the sequence “VLSTAPPQL [CT-X candidate nonamer predicted by POTN, synthesized]”, the Binding result was “++ (FI ≥ 1.5)”.
For “YLATADMPA [CT-X candidate nonamer predicted by POTN, synthesized]”, the Binding result is listed as “++ (FI ≥ 1.5)”.

The next experiment concerns T cell response.
Experiment: not given
Also on record: method as in PMID 29720506, PMID 15564450, PMID 18753217, PMID 21883919, PMID 11984506. As to conditions: pairs with only one amino acid different at P3; ref [62]–[66]; cited from earlier work.
On to “EVKEKHEFL [literature peptide of a P3 pair]”, for which the “Immunogenicity (immunogenic / non-immunogenic)” value is on record as “immunogenic”.
Regarding “EVREKHEFL [literature peptide of a P3 pair]”, the “Immunogenicity (immunogenic / non-immunogenic)” value was “non-immunogenic”.
“QLCDVMFYL [literature peptide of a P3 pair]”: the “Immunogenicity (immunogenic / non-immunogenic)” value is reported as “immunogenic”.
For the sequence “QLRDVMFYL [literature peptide of a P3 pair]”, the “Immunogenicity (immunogenic / non-immunogenic)” value was “non-immunogenic”.

Another experiment relates to CD3+CD8+ T cells from HLA-A2+ healthy donors. Briefly: ICS assay for immunogenicity: IFN-γ production of CD3+CD8+ T cells from peptide-stimulated PBMCs. Type of experiment: cell-based, human. As to conditions: IFN-γ+ CD8+ T cells, five HLA-A2+ healthy donors. The procedure: We determined whether the high-binding affinity peptides elicited a T cell response in peripheral blood samples from five HLA-A2^+ healthy donors. The blood samples were obtained from Henan Red Cross Blood Center (Zhengzhou, China) with the approval of the Institutional Ethics Review Board. All research was performed under the approval of the Ethics Committee of Zhengzhou University. An ICS assay was used to quantify IFN-γ production of CD3^+CD8^+ T cells. Peripheral blood mononuclear cells (PBMCs) were stimulated by each peptide (10 μg/mL) once-weekly for 3 weeks according to our previous work ([59]). On day 21, the induced T cells from the PBMCs were used as effector cells, and T2 cells were incubated with the synthesized peptides (50 μg/mL) for 4 h as the stimulator cells. The effector cells (1 × 10^6) and stimulator cells (1 × 10^6) were co-incubated for 3 h, and brefeldin A (2 μg/mL, Sigma-Aldrich, USA) was added to block the release of produced cytokines for another 5 h at 37°C and 5% CO2. The cells were washed and stained with eFlour 710 labeled anti-human CD3 antibody and APC-labeled anti-human CD8 antibody (eBioscience) for 30 min at 4°C before fixation and permeabilization. Permeabilized cells were intracellularly stained with the PE-labeled anti-human IFN-γ antibody (BioLegend, Inc., USA) for 30 min on ice in the dark. Cells were resuspended in buffer for acquisition and analysis using a flow cytometer (FACSCalibur, Becton Dickinson).
Next, we examined the T cell responses of the 13 synthesized peptides with high binding affinity by detecting the percentages of IFN-γ^+ CD8^+ T cells from five HLA-A2^+ healthy donors. A higher percentage of IFN-γ^+ CD8^+ T cells in the total CD8^+ T cell population than that of the negative control indicated an immunogenic peptide. In donor 1, 12 were immunogenic ( Figure 5B ); in donor 2, eight peptides were immunogenic ( Figure 5C ); in donor 3, 10 peptides were immunogenic ( Figure 5D ); in donor 4, six peptides were immunogenic ( Figure 5E ); and in donor 5, 12 peptides were immunogenic ( Figure 5F ). […] In other words, any of the 13 high-affinity peptides could stimulate a T lymphocyte response in at least one donor ( Figures 5G, H ).
Consider “KLSSIIPSA [CT-X candidate nonamer predicted by POTN, synthesized]”, for which the “T cell response in donors” value is recorded as “only elicited a response in donor 5”.

Staying with this experiment, now noted: percentages of IFN-γ+-secreting CD8+ T cells higher than negative control, PBMCs stimulated 10 μg/mL once-weekly 3 weeks.
Regarding “ALDEKVAEL [CT-X candidate nonamer predicted by POTN, synthesized]”, the “Immunogenicity: response ratio of each peptide in five donors” value (from here on “Immunogenicity: response ratio”) was 4/5.
In the case of “ALSTVLPGL [CT-X candidate nonamer predicted by POTN, synthesized]”, the “Immunogenicity: response ratio” value was 2/5.
Consider “AMASASPSV [CT-X candidate nonamer predicted by POTN, synthesized]”, for which the “Immunogenicity: response ratio” value is recorded as 3/5.
With “FIDKLVESV [CT-X candidate nonamer predicted by POTN, synthesized]”, the “Immunogenicity: response ratio” value is recorded as 5/5.
The same measure, in the same setting: next, “ILDRANQSV [CT-X candidate nonamer predicted by POTN, synthesized]”: 3/5; “KLSSIIPSA [CT-X candidate nonamer predicted by POTN, synthesized]”: 1/5.
For the sequence “KMAGELIKI [CT-X candidate nonamer predicted by POTN, synthesized]”, the “Immunogenicity: response ratio” value is reported as 4/5.
On the same count and under the same terms, next, “LMDVQIPTA [CT-X candidate nonamer predicted by POTN, synthesized]”: 5/5; “SIDDLSFYV [CT-X candidate nonamer predicted by POTN, synthesized]”: 4/5.
On to “TLDEKVAEL [CT-X candidate nonamer predicted by POTN, synthesized]”, for which the “Immunogenicity: response ratio” value is reported as 5/5.
“TLDQVLDEV [CT-X candidate nonamer predicted by POTN, synthesized]”: the “Immunogenicity: response ratio” value is given as 5/5.
Same read-out and setting: the value for “VLSTAPPQL [CT-X candidate nonamer predicted by POTN, synthesized]” was 4/5; that for “YLATADMPA [CT-X candidate nonamer predicted by POTN, synthesized]” was 3/5.
